We go through five molecules from paper PMC5494507, “γ‐Secretase inhibitors in cancer clinical trials are pharmacologically and functionally distinct” (EMBO Molecular Medicine, 2017).

Assay [1] deals with full‐length APP. The assay is described as follows: Cell-based γ-secretase cleavage assay, full-length APP stably overexpressing cells (Aβ ELISA). The settings on record: for IC50: full-length APP stably overexpressing cells, Aβ ELISA. How it is done:
(§1) We next tested all GSIs on cAPPC100sub and full‐length APP stably overexpressing cells. […] The low‐dose potentiation of γ‐secretase cleavage was further mechanistically probed using in vitro assays with recombinant substrates and IP‐MS.
H4 cells were cultured in Opti‐mem media (Thermo‐Fisher) supplemented with Hyclone 6% fetal bovine serum (GE, Logan, Utah, USA) and 1% penicillin/streptomycin (Life Technologies, Grand Island, NY, USA). pCDNA3.1 plasmids containing the substrate cDNAs were transfected into H4 cells using FuGENE HD reagent (Madison, WI, USA). Stable cell lines were established using G418 selection. […] Cells and conditioned media were used for WB, IP, and ELISA.
Sandwich ELISAs used for Aβ detection were performed as previously described (Murphy et al, 1999; Ran et al, 2014). Briefly, Aβ and Aβ‐like peptides in conditioned media were captured with Ab5 antibody and detected with horseradish peroxidase labeled mAb 4G8 (Biolegend). Synthetic Aβ1‐40 was used as standard. All ELISAs were developed with TMB substrate (KPL, Gaithersburg, Maryland, USA). Bis‐Tris precast gels (Biorad, Hercules, CA, USA) were used for all SDS–PAGE. Monoclonal anti‐FLAG M2 antibody (Sigma) and Aβ1‐16 antibody 6E10 (Covance) were used for Western blotting at 1:1,000 dilution. Anti‐CD74 In‐1 antibody (BD Bioscience, San Jose, CA, USA) was used for A20 cell lysate Western blotting at dilution of 1:1,000. MDA‐MB‐231 cell extracts were prepared by lysing cells in RIPA buffer containing protease and phosphatase inhibitors. The lysates were kept on ice for 30 min and vortexed every 10 min, and then centrifuged at 4°C for 10 min at 1,000 g. The supernatants were collected, and protein concentrations were determined by Bradford Assay. Pan‐NOTCH1 antibody (C‐20) (Santa Cruz Biotechnology) and cleaved NOTCH1 (Val1744) antibody ([…]) were used at 1:500 and 1:100 dilution in the test of endogenous NOTCH1 inhibition with β‐actin expression used as loading control. β‐actin antibody was used at 1:1,000 dilution (Sigma). Band intensities normalized for actin using densitometry analysis with ImageJ Software (NIH, USA).
(In general: An ELISA detects its analyte on a solid surface through an enzyme-linked reagent.)

The test system of assay [2] is rAPPC100sub. The assay is described as follows: Cell-free γ-secretase assay, rAPPC100sub (IP-MS), low-dose potentiation. Type of assay: biochemical. The settings on record: in vitro assay, recombinant substrate.
Excerpt: as §1

The test system of assay [3] is rAPPC100sub and rNOTCH1‐4subs. The assay is described as follows: Cell-free γ-secretase assay, rAPPC100sub and rNOTCH1-4subs (IP-MS). The settings on record: 25 nM. The format is biochemical, human. How it is done: cDNAs encoding NOTCH1, NOTCH2, NOTCH3, NOTCH4, CD44, and VEGFR1 γ‐secretase substrates were generated by gene synthesis conducted by Genscript (Piscataway, NJ, USA). The general design of the constructs was similar to a recombinant substrate (APP C100) that has been used by our group and others to assay Aβ production in in vitro γ‐secretase assays. All constructs contain an NH2‐terminal amyloid β peptide (Aβ) epitope tag followed by the juxtamembrane region (JMD) of the given substrate and a FLAG tag ([…]) at the COOH‐terminal. A schematic representation of the substrates is provided in Fig 1A, and sequences of the cDNAs and the proteins are provided in Appendix Fig S5. For clarity, these substrates are referred to as recombinant substrates (e.g., Notch1 is rNOTCH1sub). Substrate cDNAs were cloned into pET21 (Novagen, Billerica, MA, USA) for expression in bacterial cells.
pET21 plasmids containing the substrate cDNAs were transformed into BL21 E. coli. cells. Overexpression was induced with 0.5 mM isopropyl β‐D‐1‐thiogalactopyranoside (IPTG). […]
Immunoprecipitation and mass spectrometry of Aβ and Aβ‐like peptides in cell‐free assay or conditioned media were performed as previously described (Ran et al, 2014). […] Samples were analyzed using a Bruker Microflex LRF‐MALDI‐TOF mass spectrometer.

A word on the IC50: it is the midpoint of a concentration-inhibition curve.

Consider `CN1C(=O)[C@@H](NC(=O)[C@H](CCC(F)(F)F)[C@H](CCC(F)(F)F)C(N)=O)N=C(c2ccccc2)c2ccccc21` [BMS‐906024], for which the IC50 in assay [1] worked out at 0.05 nM. Besides, in assay [2], the “concentration at which cleavage from rAPPC100sub was potentiated” value is reported as 0.03 nM. In assay [3], the “cleavage of the rAPPC100sub and rNOTCH1‐4subs” value is “completely blocked cleavage”.

On to `O=C(O)CC[C@H]1CC[C@@](c2cc(F)ccc2F)(S(=O)(=O)c2ccc(Cl)cc2)CC1` [MK‐0752], for which the half-inhibitory concentration (IC50) in assay [1] is 9.03 nM.

As to `CCC[C@H](N[C@H]1CCc2cc(F)cc(F)c2C1)C(=O)Nc1cn(C(C)(C)CNCC(C)(C)C)cn1` [PF‐3084014], the IC50 in assay [1] worked out at 0.07 nM. On to `CC(C)(C(=O)NCC(F)(F)C(F)(F)F)C(=O)N[C@@H]1C(=O)Nc2ccccc2-c2ccccc21` [RO4929097], for which the “low-dose potentiation of cleavage, APP” value in assay [1] (full-length APP overexpressing cells) is recorded as “low‐dose potentiation of cleavage was observed”. The IC50 in assay [1] was 1.41 nM.

Regarding `CC(C)[C@H](O)C(=O)N[C@@H](C)C(=O)N[C@@H]1C(=O)N(C)CCc2ccccc21` [Semagacestat], in assay [1], the concentration for half-maximal inhibition (IC50) worked out at 24.5 nM. In assay [2], the “concentration at which cleavage from rAPPC100sub was potentiated” value is given as 0.16 nM.
